Experimental data as given in patent publication US8227459B2, “Diamino-phenothiazinyl derivatives as antiviral treatments” (priority 2007, dated 2012).

Key:
[1] = test system: VEEV Trinidad virus; assay type: cell-based, Venezuelan Equine Encephalitis virus
[2] = test system: DENV; assay type: cell-based, Dengue virus
[3] = test system: RVFV; assay type: cell-based, Rift Valley Fever virus
[4] = test system: WNV; assay type: cell-based, West Nile virus
[5] = test system: LASV; assay type: cell-based, Lhasa virus
[6] = test system: HCV; assay type: cell-based, hepatitis C virus
[7] = test system: EBOV; assay type: cell-based, Ebola virus
[8] = test system: CHK; assay type: cell-based, chikungunya virus
[9] = test system: WEEV; assay type: cell-based, Wester Equine Encephalitis virus
[10] = test system: EEEV; assay type: cell-based, Easter Equine Encephalitis virus
[11] = test system: PTV; assay type: cell-based, Punta Toro Virus
[12] = test system: EBOV; design: species or system mice; conditions: mouse, in vivo, ip
[13] = test system: Marburg virus; design: species or system mice; conditions: mouse, in vivo, ip

Molecule	EC99 VEEV [1] [µM]	EC99 DENV [2] [µM]	EC99 RVFV [3] [µM]	EC99 WNV [4] [µM]	EC99 LASV [5] [µM]	further results
CN(C)c1ccc2nc3ccc(N)cc3[s+]c2c1.[Cl-] [Azure A]	0.1 to 1	1	–	–	–	–
CNc1ccc2nc3ccc(N)cc3[s+]c2c1.[Cl-] [Azure C]	0.1	<1	–	–	–	–
CN(C)c1cc(F)c2nc3c(F)cc(=[N+](C)C)cc-3sc2c1 [Compound 3]	<1	–	>5	1	>5	–
CN(C)c1cc(Cl)c2nc3c(Cl)cc(=[N+](C)C)cc-3sc2c1 [Compound 4]	<1	–	0.05	<1	<5	–
Cc1cc(=[N+](C)C)cc2sc3cc(N(C)C)cc(C)c3nc1-2.[Cl-] [Dimethyl MB, dimethylmethylene blue]	0.02 to 0.1	–	<10	0.025 to 0.1	<1	EC99 HCV [6]: 0.2 to 0.5 µM; EC99 EBOV [7]: 0.025 to 0.1 µM; EC99 CHK [8]: 0.1 to 1 µM; EC99 WEEV [9]: 0.1 µM; EC99 EEEV [10]: <0.1 µM; EC99 PTV [11]: 5 µM; prophylaxis of study group against EBOV [12]: complete prophylaxis; survival, EBOV [12]: 100%; day by which surviving mice had recovered, Marburg [13]: ≤ 9 days; prophylaxis of study group against Marburg [13]: 60%
CN(C)c1ccc2nc3ccc(=[N+](C)C)cc-3sc2c1 [Methylene Blue (MB), Methylene Blue]	<1	10	>5	<1	–	EC99 HCV [6]: 0.02 to 0.08 µM; EC99 EBOV [7]: >3.2 µM; EC99 CHK [8]: 1 µM; EC99 WEEV [9]: 1 µM; EC99 EEEV [10]: 1 µM
Cc1cc2nc3ccc(N(C)C)cc3[s+]c2cc1N.[Cl-] [Toluidine Blue]	<10	1	–	–	–	–
Azure B	0.1 to 1	1	–	–	–	–
